Laboratory results: patent US20220331303A1, “USE OF AN OREXIN 2 RECEPTOR AGONIST FOR THE TREATMENT OF EXCESSIVE SLEEPINESS” (Takeda Pharmaceutical Company Limited, priority 2019, published 2022)

Assay: Plasma PK of Compound A after a single 9-hour IV infusion in sleep-deprived healthy male subjects
Assay type: in vivo, human
Experimental: This was a phase 1b, single-center, randomized, double-blind, double-dummy, placebo- and active-controlled, 4-period Williams design crossover study to evaluate the PK, PD, and safety of Compound A in sleep-deprived healthy volunteers. Compound A was administered as a 9-hour IV infusion.
Healthy adult male subjects aged 18 to 40 years, inclusive, who satisfied the inclusion and exclusion criteria were enrolled in the trial. On Day 1 of treatment period 1, eligible subjects were equally randomized to 4 treatment sequence groups (sequence 1 to 4) which defined the order of administration for Compound A LD, Compound A HD (both delivered as a 9-hour IV infusion), modafinil 300 mg, and placebo.
During the day before dosing on Day 1, participants were administered the KSS at scheduled timepoints. A practice MWT session was performed on Day 1 treatment period 1 (only once during the entire study) to familiarize subjects with the procedures. Study drug was administered in the clinic in the evening on Day 1 of each treatment period. Subjects underwent the MWT and KSS at specified timepoints after the start of the infusion. Subjects were required to stay awake between the MWT tests. Following completion of the IV infusion on Day 2, subjects underwent an additional MWT test. When the final MWT test and cognitive testing were completed, subjects were allowed to sleep (recovery sleep) for approximately 6 hours. PSG recording was collected during this time. Subjects were discharged from the unit after completion on Day 2 with continuing actigraphy upon discharge (to begin on Day −6 before the next treatment period). The interval between each subsequent treatment period was at least 7 days to ensure that the subject's circadian rhythm had returned to a normal cycle. Subject's vital signs, including BP, were monitored during the dosing and testing period. Blood samples for determination of Compound A plasma concentrations were collected at specified timepoints on Days 1 and 2 of each treatment period. Subjects completed the Columbia-Suicide Severity Rating Scale (C-SSRS) during screening, before study drug administration, and before discharge on Day 2 of each treatment period.
Plasma concentrations were tabulated, and descriptive statistics were calculated for each Compound A dose level and are listed in Tables 3-6 for Compound A. The mean plasma concentration versus time plots for Compound A are shown in FIG. 1.

[1] = 44 mg 9-h IV infusion, 0.17 h post infusion end
[2] = 44 mg 9-h IV infusion, 0.5 h post infusion end
[3] = 44 mg 9-h IV infusion, 1 h post infusion end
[4] = 44 mg 9-h IV infusion, 2 h post infusion end
[5] = 44 mg 9-h IV infusion, 3 h post infusion end
[6] = 44 mg 9-h IV infusion, 4 h post infusion end
[7] = 44 mg 9-h IV infusion, 6 h post infusion end
[8] = 44 mg 9-h IV infusion, 9 h post infusion end
[9] = 44 mg 9-h IV infusion, Discharge (post infusion end)
[10] = 44 mg [LD] single 9-hour IV infusion
[11] = 112 mg 9-h IV infusion, 0.17 h post infusion end
[12] = 112 mg 9-h IV infusion, 0.5 h post infusion end
[13] = 112 mg 9-h IV infusion, 1 h post infusion end
[14] = 112 mg 9-h IV infusion, 1 h post infusion start
[15] = 112 mg 9-h IV infusion, 2 h post infusion end
[16] = 112 mg 9-h IV infusion, 2 h post infusion start
[17] = 112 mg 9-h IV infusion, 4 h post infusion start
[18] = 112 mg 9-h IV infusion, 6 h post infusion start
[19] = 112 mg 9-h IV infusion, 9 h post infusion start
[20] = 112 mg 9-h IV infusion, Discharge (post infusion end)
[21] = 112 mg [HD] single 9-hour IV infusion

COC(=O)N1CCC[C@H](NS(C)(=O)=O)[C@@H]1CO[C@H]1CC[C@@H](c2ccccc2)CC1 [Compound A, methyl (2R,3S)-3-((methylsulfonyl)amino)-2-(((cis-4-phenylcyclohexyl)oxy)methyl)piperidine-1-carboxylate]
Plasma Concentration Mean [1]: 76.86 ng/mL | Plasma concentration (GM) [1]: 76.07 ng/mL | Plasma concentration (Median) [1]: 74.80 ng/mL | Plasma Concentration Mean [2]: 50.78 ng/mL | Plasma concentration (GM) [2]: 49.49 ng/mL | Plasma concentration (Median) [2]: 49.10 ng/mL | Plasma Concentration Mean [3]: 40.73 ng/mL | Plasma concentration (GM) [3]: 39.05 ng/mL | Plasma concentration (Median) [3]: 38.15 ng/mL | Plasma Concentration Mean [4]: 22.23 ng/mL | Plasma concentration (GM) [4]: 21.44 ng/mL | Plasma concentration (Median) [4]: 21.00 ng/mL | Plasma Concentration Mean [5]: 20.67 ng/mL | Plasma concentration (GM) [5]: 19.74 ng/mL | Plasma concentration (Median) [5]: 20.35 ng/mL | Plasma Concentration Mean [6]: 16.28 ng/mL | Plasma concentration (GM) [6]: 15.56 ng/mL | Plasma concentration (Median) [6]: 17.25 ng/mL | Plasma Concentration Mean [7]: 10.32 ng/mL | Plasma concentration (GM) [7]: 9.85 ng/mL | Plasma concentration (Median) [7]: 10.75 ng/mL | Plasma Concentration Mean [8]: 5.56 ng/mL | Plasma concentration (GM) [8]: 5.06 ng/mL | Plasma concentration (Median) [8]: 5.06 ng/mL | Plasma Concentration Mean [9]: 4.95 ng/mL | Plasma concentration (GM) [9]: 4.60 ng/mL | Plasma concentration (Median) [9]: 4.78 ng/mL | Ceoi (GM) [10]: 102.5 ng/mL | Ceoi (Mean) [10]: 103.4 ng/mL | Ceoi (Median) [10]: 101.0 ng/mL | t1/2z (Mean) [10]: 3.134 h | t1/2z (Median) [10]: 3.020 h | Plasma Concentration Mean [11]: 196.83 ng/mL | Plasma concentration (Median) [11]: 197.50 ng/mL | Plasma Concentration Mean [12]: 124.21 ng/mL | Plasma concentration (Median) [12]: 121.50 ng/mL | Plasma Concentration Mean [13]: 100.48 ng/mL | Plasma concentration (Median) [13]: 96.90 ng/mL | Plasma Concentration Mean [14]: 162.56 ng/mL | Plasma concentration (GM) [14]: 155.56 ng/mL | Plasma concentration (Median) [14]: 151.00 ng/mL | Plasma Concentration Mean [15]: 58.92 ng/mL | Plasma concentration (Median) [15]: 61.40 ng/mL | Plasma Concentration Mean [16]: 187.06 ng/mL | Plasma concentration (GM) [16]: 185.71 ng/mL | Plasma concentration (Median) [16]: 179.50 ng/mL | Plasma Concentration Mean (112 mg 9-h IV infusion, 3 h post infusion end): 53.01 ng/mL | Plasma Concentration Mean (112 mg 9-h IV infusion, 4 h post infusion end): 41.98 ng/mL | Plasma Concentration Mean [17]: 217.61 ng/mL | Plasma concentration (GM) [17]: 216.56 ng/mL | Plasma concentration (Median) [17]: 210.00 ng/mL | Plasma Concentration Mean (112 mg 9-h IV infusion, 6 h post infusion end): 24.24 ng/mL | Plasma Concentration Mean [18]: 234.06 ng/mL | Plasma concentration (GM) [18]: 232.92 ng/mL | Plasma concentration (Median) [18]: 229.50 ng/mL | Plasma Concentration Mean (112 mg 9-h IV infusion, 9 h post infusion end): 13.78 ng/mL | Plasma Concentration Mean [19]: 253.39 ng/mL | Plasma concentration (GM) [19]: 250.96 ng/mL | Plasma concentration (Median) [19]: 252.50 ng/mL | Plasma Concentration Mean [20]: 13.01 ng/mL | Plasma concentration (GM) [20]: 12.09 ng/mL | Plasma concentration (Median) [20]: 11.50 ng/mL | Ceoi (GM) [21]: 251.0 ng/mL | Ceoi (Mean) [21]: 253.4 ng/mL | Ceoi (Median) [21]: 252.5 ng/mL | t1/2z (Mean) [21]: 3.252 h | t1/2z (Median) [21]: 3.165 h
